Values of other authors as cited in patent US10537540B2, “Pharmaceutical composition for promoting nerve injury restoration and application thereof” (priority 2012, dated 2020).

Experiments:
[1] = intravenous infusion of 5 g
[2] = tested on: rat spinal cord injury model

SMILES	Urine induced [1]	Lipid peroxidation and free radicals after spinal cord injury [2]
Cc1ncc(CO)c(CO)c1O.Cl [vitamin B6]	about 380 mL	–
Cc1c(C)c2c(c(C)c1OP(=O)([O-])OC1=C(O)[C@@H]([C@@H](O)CO)OC1=O)CC[C@@](C)(CCC[C@H](C)CCC[C@H](C)CCCC(C)C)O2.[K+] [EPC-K1]	–	significantly block lipid peroxidation and remove free radicals
